Experimental data as given in article PMC10235067, “Increased renal elimination of endogenous and synthetic pyrimidine nucleosides in concentrative nucleoside transporter 1 deficient mice” (Nature Communications, 2023).
Values joined by “and” are separate entries in the source; they are usually repeats but may differ in a detail not shown here. Identical values can stand only once.

Assay: Gemcitabine plasma pharmacokinetics in Slc28a1+/+ and Slc28a1-/- mice
Conditions: Gem-TP in plasma, single intravenous dose of gemcitabine 50mg/kg, individual mice

Q: Which results are given for `Nc1ccn([C@@H]2O[C@H](COP(=O)(O)OP(=O)(O)OP(=O)(O)O)[C@@H](O)C2(F)F)c(=O)n1` [Gem-TP]?
A: AUCINF_D_obs (KO (Slc28a1-/-) mice): 509.381 kg·ng·min/mL/mg and 272.158 kg·ng·min/mL/mg and 1500.18 kg·ng·min/mL/mg and 597.23 kg·ng·min/mL/mg and 1529.97 kg·ng·min/mL/mg and 1749.53 kg·ng·min/mL/mg; AUCINF_D_pred (KO (Slc28a1-/-) mice): 476.443 kg·ng·min/mL/mg and 251.621 kg·ng·min/mL/mg and 1436.01 kg·ng·min/mL/mg and 561.179 kg·ng·min/mL/mg and 1459.25 kg·ng·min/mL/mg and 1679.11 kg·ng·min/mL/mg; AUCINF_obs (KO (Slc28a1-/-) mice): 25469 ng·min/mL and 13607.9 ng·min/mL and 75008.8 ng·min/mL and 29861.5 ng·min/mL and 76498.5 ng·min/mL and 87476.7 ng·min/mL; AUCINF_pred (KO (Slc28a1-/-) mice): 23822.1 ng·min/mL and 12581.1 ng·min/mL and 71800.6 ng·min/mL and 28058.9 ng·min/mL and 72962.4 ng·min/mL and 83955.6 ng·min/mL; AUC_%Back_Ext_obs (KO (Slc28a1-/-) mice): 0.5829% and 5.828% and 0.4312% and 2.002% and 0.5682% and 0.06111%; AUC_%Back_Ext_pred (KO (Slc28a1-/-) mice): 0.6232% and 6.304% and 0.4505% and 2.131% and 0.5957% and 0.06367%; AUC_%Extrap_obs (KO (Slc28a1-/-) mice): 67.4874% and 53.7747% and 79.3116% and 67.9349% and 78.2847% and 81.1285%; AUC_%Extrap_pred (KO (Slc28a1-/-) mice): 65.2397% and 50.0019% and 78.3872% and 65.875% and 77.2323% and 80.3371%; AUCall (KO (Slc28a1-/-) mice): 8280.65 ng·min/mL and 6290.29 ng·min/mL and 15518.1 ng·min/mL and 9575.11 ng·min/mL and 16611.9 ng·min/mL and 16508.1 ng·min/mL; AUClast (KO (Slc28a1-/-) mice): 8280.65 ng·min/mL and 6290.29 ng·min/mL and 15518.1 ng·min/mL and 9575.11 ng·min/mL and 16611.9 ng·min/mL and 16508.1 ng·min/mL; AUClast_D (KO (Slc28a1-/-) mice): 165.613 kg·ng·min/mL/mg and 125.806 kg·ng·min/mL/mg and 310.363 kg·ng·min/mL/mg and 191.502 kg·ng·min/mL/mg and 332.237 kg·ng·min/mL/mg and 330.163 kg·ng·min/mL/mg; AUMCINF_obs (KO (Slc28a1-/-) mice): 14271006 min*min*ng/mL and 5009676 min*min*ng/mL and 73111057 min*min*ng/mL and 17625971 min*min*ng/mL and 70582595 min*min*ng/mL and 93013834 min*min*ng/mL; AUMCINF_pred (KO (Slc28a1-/-) mice): 12992303 min*min*ng/mL and 4388328 min*min*ng/mL and 69264936 min*min*ng/mL and 16149841 min*min*ng/mL and 66527378 min*min*ng/mL and 88496254 min*min*ng/mL; AUMC_%Extrap_obs (KO (Slc28a1-/-) mice): 93.5147% and 88.3871% and 97.5522% and 94.251% and 97.3007% and 97.8918%; AUMC_%Extrap_pred (KO (Slc28a1-/-) mice): 92.8764% and 86.7428% and 97.4162% and 93.7255% and 97.1361% and 97.7841%; AUMClast (KO (Slc28a1-/-) mice): 925521 min*min*ng/mL and 581771 min*min*ng/mL and 1789646 min*min*ng/mL and 1013321 min*min*ng/mL and 1905271 min*min*ng/mL and 1960946 min*min*ng/mL; Cl_pred (KO (Slc28a1-/-) mice): 2098.89 mL/min/kg and 3974.23 mL/min/kg and 696.373 mL/min/kg and 1781.96 mL/min/kg and 685.285 mL/min/kg and 595.553 mL/min/kg; Clast (KO (Slc28a1-/-) mice): 32.0426 ng/mL and 20.0426 ng/mL and 62.0426 ng/mL and 35.0426 ng/mL and 66.0426 ng/mL and 68.0426 ng/mL; Clast_pred (KO (Slc28a1-/-) mice): 28.9724 ng/mL and 17.2301 ng/mL and 58.6968 ng/mL and 31.9288 ng/mL and 62.1429 ng/mL and 64.6666 ng/mL; Cmax (KO (Slc28a1-/-) mice): 49.2745 ng/mL and 91.6911 ng/mL and 79.2745 ng/mL and 88.6911 ng/mL and 85.6911 ng/mL and 85.2745 ng/mL; Cmax_D (KO (Slc28a1-/-) mice): 0.9855 kg·ng/mL/mg and 1.834 kg·ng/mL/mg and 1.585 kg·ng/mL/mg and 1.774 kg·ng/mL/mg and 1.714 kg·ng/mL/mg and 1.705 kg·ng/mL/mg; HL_Lambda_z (KO (Slc28a1-/-) mice): 371.821 min and 253.07 min and 664.637 min and 401.268 min and 628.538 min and 722.954 min; Lambda_z (KO (Slc28a1-/-) mice): 0.001864 min⁻¹ and 0.002739 min⁻¹ and 0.001043 min⁻¹ and 0.001727 min⁻¹ and 0.001103 min⁻¹ and 0.0009588 min⁻¹; MRTINF_obs (KO (Slc28a1-/-) mice): 560.327 min and 368.145 min and 974.7 min and 590.258 min and 922.666 min and 1063.3 min; MRTINF_pred (KO (Slc28a1-/-) mice): 545.388 min and 348.805 min and 964.684 min and 575.569 min and 911.804 min and 1054.08 min; MRTlast (KO (Slc28a1-/-) mice): 111.769 min and 92.4871 min and 115.326 min and 105.829 min and 114.693 min and 118.787 min; Tlast (KO (Slc28a1-/-) mice): 240 min; Tmax (KO (Slc28a1-/-) mice): 10 min and 5 min; Vss_obs (KO (Slc28a1-/-) mice): 1100017 mL/kg and 1352688 mL/kg and 649724 mL/kg and 988326 mL/kg and 603062 mL/kg and 607760 mL/kg; Vss_pred (KO (Slc28a1-/-) mice): 1144708 mL/kg and 1386230 mL/kg and 671779 mL/kg and 1025643 mL/kg and 624846 mL/kg and 627762 mL/kg; Vz_obs (KO (Slc28a1-/-) mice): 1053090 mL/kg and 1341512 mL/kg and 639170 mL/kg and 969320 mL/kg and 592684 mL/kg and 596160 mL/kg; Vz_pred (KO (Slc28a1-/-) mice): 1125894 mL/kg and 1451004 mL/kg and 667729 mL/kg and 1031591 mL/kg and 621408 mL/kg and 621163 mL/kg; AUCINF_D_obs (WT (Slc28a1+/+) mice): 627.983 kg·ng·min/mL/mg and 293.244 kg·ng·min/mL/mg and 2095.28 kg·ng·min/mL/mg and 746.583 kg·ng·min/mL/mg and 2357.3 kg·ng·min/mL/mg and 2481.13 kg·ng·min/mL/mg; AUCINF_D_pred (WT (Slc28a1+/+) mice): 611.177 kg·ng·min/mL/mg and 283.996 kg·ng·min/mL/mg and 2059.29 kg·ng·min/mL/mg and 727.87 kg·ng·min/mL/mg and 2318.74 kg·ng·min/mL/mg and 2441.28 kg·ng·min/mL/mg; AUCINF_obs (WT (Slc28a1+/+) mice): 31399.2 ng·min/mL and 14662.2 ng·min/mL and 104764 ng·min/mL and 37329.2 ng·min/mL and 117865 ng·min/mL and 124056 ng·min/mL; AUCINF_pred (WT (Slc28a1+/+) mice): 30558.9 ng·min/mL and 14199.8 ng·min/mL and 102964 ng·min/mL and 36393.5 ng·min/mL and 115937 ng·min/mL and 122064 ng·min/mL; AUC_%Back_Ext_obs (WT (Slc28a1+/+) mice): 0.6002% and 4.658% and 0.3469% and 1.514% and 0.3975% and 0.07533%; AUC_%Back_Ext_pred (WT (Slc28a1+/+) mice): 0.6167% and 4.81% and 0.353% and 1.5528% and 0.4041% and 0.07656%; AUC_%Extrap_obs (WT (Slc28a1+/+) mice): 74.9814% and 61.0207% and 85.5932% and 75.6831% and 86.2719% and 87.0356%; AUC_%Extrap_pred (WT (Slc28a1+/+) mice): 74.2934% and 59.7514% and 85.3414% and 75.0579% and 86.0436% and 86.824%; AUCall (WT (Slc28a1+/+) mice): 7855.65 ng·min/mL and 5715.22 ng·min/mL and 15093.1 ng·min/mL and 9077.31 ng·min/mL and 16180.6 ng·min/mL and 16083.1 ng·min/mL; AUClast (WT (Slc28a1+/+) mice): 7855.65 ng·min/mL and 5715.22 ng·min/mL and 15093.1 ng·min/mL and 9077.31 ng·min/mL and 16180.6 ng·min/mL and 16083.1 ng·min/mL; AUClast_D (WT (Slc28a1+/+) mice): 157.113 kg·ng·min/mL/mg and 114.304 kg·ng·min/mL/mg and 301.863 kg·ng·min/mL/mg and 181.546 kg·ng·min/mL/mg and 323.613 kg·ng·min/mL/mg and 321.663 kg·ng·min/mL/mg; AUMCINF_obs (WT (Slc28a1+/+) mice): 25618307 min*min*ng/mL and 7382666 min*min*ng/mL and 159455048 min*min*ng/mL and 32660009 min*min*ng/mL and 190278277 min*min*ng/mL and 207071348 min*min*ng/mL; AUMCINF_pred (WT (Slc28a1+/+) mice): 24735428 min*min*ng/mL and 7028934 min*min*ng/mL and 156289942 min*min*ng/mL and 31610468 min*min*ng/mL and 186705642 min*min*ng/mL and 203285848 min*min*ng/mL; AUMC_%Extrap_obs (WT (Slc28a1+/+) mice): 96.5565% and 92.707% and 98.9048% and 97.0301% and 99.0215% and 99.0739%; AUMC_%Extrap_pred (WT (Slc28a1+/+) mice): 96.4336% and 92.3399% and 98.8827% and 96.9315% and 99.0028% and 99.0567%; AUMClast (WT (Slc28a1+/+) mice): 882171 min*min*ng/mL and 538421 min*min*ng/mL and 1746296 min*min*ng/mL and 969971 min*min*ng/mL and 1861921 min*min*ng/mL and 1917596 min*min*ng/mL; Cl_pred (WT (Slc28a1+/+) mice): 1636.19 mL/min/kg and 3521.18 mL/min/kg and 485.605 mL/min/kg and 1373.87 mL/min/kg and 431.268 mL/min/kg and 409.621 mL/min/kg; Clast (WT (Slc28a1+/+) mice): 29.0426 ng/mL and 17.0426 ng/mL and 59.0426 ng/mL and 32.0426 ng/mL and 63.0426 ng/mL and 65.0426 ng/mL; Clast_pred (WT (Slc28a1+/+) mice): 28.006 ng/mL and 16.1618 ng/mL and 57.8576 ng/mL and 30.9814 ng/mL and 61.8472 ng/mL and 63.8424 ng/mL; Cmax (WT (Slc28a1+/+) mice): 69.2745 ng/mL and 99.6911 ng/mL and 99.2745 ng/mL and 96.6911 ng/mL and 103.275 ng/mL and 105.275 ng/mL; Cmax_D (WT (Slc28a1+/+) mice): 1.385 kg·ng/mL/mg and 1.994 kg·ng/mL/mg and 1.985 kg·ng/mL/mg and 1.934 kg·ng/mL/mg and 2.065 kg·ng/mL/mg and 2.105 kg·ng/mL/mg; HL_Lambda_z (WT (Slc28a1+/+) mice): 561.904 min and 363.887 min and 1052.72 min and 611.146 min and 1118.01 min and 1150.65 min; Lambda_z (WT (Slc28a1+/+) mice): 0.001234 min⁻¹ and 0.001905 min⁻¹ and 0.0006584 min⁻¹ and 0.001134 min⁻¹ and 0.00062 min⁻¹ and 0.0006024 min⁻¹; MRTINF_obs (WT (Slc28a1+/+) mice): 815.891 min and 503.517 min and 1522.04 min and 874.919 min and 1614.37 min and 1669.17 min; MRTINF_pred (WT (Slc28a1+/+) mice): 809.436 min and 495.003 min and 1517.9 min and 868.575 min and 1610.4 min and 1665.4 min; MRTlast (WT (Slc28a1+/+) mice): 112.298 min and 94.2083 min and 115.701 min and 106.857 min and 115.071 min and 119.23 min; Tlast (WT (Slc28a1+/+) mice): 240 min; Tmax (WT (Slc28a1+/+) mice): 10 min and 5 min; Vss_obs (WT (Slc28a1+/+) mice): 1299224 mL/kg and 1717058 mL/kg and 726413 mL/kg and 1171898 mL/kg and 684839 mL/kg and 672746 mL/kg; Vss_pred (WT (Slc28a1+/+) mice): 1324388 mL/kg and 1742993 mL/kg and 737100 mL/kg and 1193310 mL/kg and 694517 mL/kg and 682183 mL/kg; Vz_obs (WT (Slc28a1+/+) mice): 1290887 mL/kg and 1790244 mL/kg and 724843 mL/kg and 1180977 mL/kg and 684235 mL/kg and 669067 mL/kg; Vz_pred (WT (Slc28a1+/+) mice): 1326384 mL/kg and 1848542 mL/kg and 737512 mL/kg and 1211340 mL/kg and 695614 mL/kg and 679987 mL/kg
